Tests used:
[1] = system: Gram-positive bacterial strains, including MRSA and VISA pathogens; test: Antibacterial activity over the panel of strains (summary statements); type: cell-based; conditions: for antibacterial activity in words: reference bacterial strains; for antibacterial activity (range over strains): summary range
Protocol: Organometallic compounds play an increasingly important role in the search for new antibacterial agents. We, therefore, thought to investigate also the bactericidal activity of the newly synthesized cymantrenes 1–7, compound C and CymH. The antibacterial activity of the compounds was tested against Gram-positive methicillin-sensitive Staphylococcus aureus (MSSA), methicillin-resistant S. aureus (MRSA), vancomycin-intermediate S. aureus (VISA), S. epidermidis, and Gram-negative Escherichia coli bacterial strains, and expressed as minimal inhibitory concentration (MIC) values (Table 3).
(§1) The antibacterial activity of CymH, 1–7 and C and the reference drugs penicillin G and polymyxin B was tested by the liquid microdilution method under standard conditions using twofold dilution series, as described in the Clinical and Laboratory Standards Institute (CLSI), reference method M07-A8, and expressed as minimal inhibitory concentration (MIC) values. A panel of Gram-positive bacterial strains, S. aureus ATCC® 29213 (sensitive to methicillin, (MSSA)), S. aureus ATCC® 43300 (resistant to methicillin, (MRSA)), S. aureus ATCC 700787™ (intermediate to vancomycin, (VISA)), and S. epidermidis ATCC 12228™, and one Gram-negative, strain E. coli ATCC BAA-198™ (ESBL) were used. In addition, four clinical isolates of S. aureus (MSSA and MRSA) and two clinical isolates of S. epidermidis that were collected from different patients at the Medical University of Warsaw, Poland, were also tested. The bacterial cells were cultivated on tryptic soy agar (TSA) and nutrient agar (NA), according to ATCC recommendations. All of the strains were incubated at 37 °C. Tested compounds were dissolved in DMSO and then serially diluted twofold with cation-adjusted Mueller-Hinton broth (CAMHB). Then, 95 µL of the dilutions were dispensed into microdilution sterile plates (Mar-Four), followed by the addition of 5 µL of bacteria inoculum containing 5 × 10^4 CFU/mL. The final concentrations of the compounds ranged from 512 to 2 µg/mL. Each compound was tested in triplicate, and Penicillin G (8–0.15 µg/mL) and Polymyxin B (256–0.0625 µg/mL) were used as controls. The plates were incubated at 37 °C for 18 to 24 h depending on the bacterial strain. Thereafter, the absorbance was measured at λ = 540 nm and λ = 595 nm using a Spectrostar Omega microplate reader (BMG Labtech, Offenburg, Germany). The MIC value was defined as the lowest concentration of a compound that reduced the growth by 100%.

SKOV-3 cells = test: Intracellular ROS, H2DCF-DA fluorescent probe; type: cell-based, human; conditions: SKOV-3, 0.5 × IC50, IC50, 2 × IC50
From the text: Oxidative stress is a part of the cytotoxic activity of many anticancer agents and the production of reactive oxygen species (ROS) is considered as one of the main molecular mechanisms accompanying chemotherapy, radiotherapy, and photodynamic therapy. Since ROS can act as both oxidants and antioxidants, depending on the conditions, pro- and anti-oxidant therapies have been proposed for the treatment of cancer. So far, both ROS scavenging and ROS boosting anticancer therapies have shown promising results in vitro and in vivo [48]. Using an appropriate fluorescence probe, we measured the amount of ROS in cancer cells that were treated with cymantrene derivatives. […] The greatest increase in ROS was observed after […], with the highest concentration of cymantrene conjugates employed (2 × IC50) (Figure 8). […] As compounds 1, 3, 5, and C were effective in the production ROS, as well as in the induction of apoptosis and autophagy, these processes might contribute together to the cytotoxic action of the molecules.
The intracellular ROS were measured with the oxidation-sensitive fluorescent probes 2′,7′-dichlorodihydrofluorescein diacetate (H2DCF-DA) (Sigma-Aldrich, St. Louis, MO, USA), as described elsewhere. The cell-permeant non-fluorescent dye H2DCF-DA is a reduced form of fluorescein that inside the cell, upon cleavage of the acetate groups by intracellular esterases and oxidation by ROS, is converted into the highly fluorescent product 2′,7′-dichlorofluorescein (DCF) (λex/λem: 498/525 nm). For the assay, 2 × 10^4 cells were seeded into wells of black flat-bottom 96-well microplates a day before the experiment. The next day, test compounds were added at concentrations of 0.5 × IC50, 1 × IC50, and 2 × IC50. […] After 24 h incubation, medium was removed, cell monolayers were washed twice with HBSS and 5 µM H2DCF-DA, dissolved in HBSS, was added to each well. The cells were incubated with the fluorescent probe for 30 min in the dark at 37 °C, and then the fluorescence of produced DCF was monitored over a time period of 0–3 h at 15-min intervals with a microplate reader.

[2] = system: Clinical S. aureus (MSSA) 30/11; test: Antibacterial liquid microdilution, clinical isolate; type: cell-based, Staphylococcus aureus
Protocol: (§2) This lack of activity against E. coli can be probably explained by an impeded cellular uptake of the compounds through the Gram-negative cell wall that consists of two layers and effective protein efflux pump systems. The antibacterial activities of 1 and C were further tested against four clinical isolates of S. aureus and two clinical isolates of S. epidermidis (Table 4).
as §1

[3] = system: Clinical S. aureus (MRSA) 31/12; test: as above; type: cell-based, Staphylococcus aureus
Protocol: as §2, §1

[4] = system: Clinical S. aureus (MRSA) 44/12; test: as above; type: cell-based, Staphylococcus aureus
Protocol: as §2, §1

[5] = system: Clinical S. aureus (MSSA) 26/11; test: as above; type: cell-based, Staphylococcus aureus
Protocol: as §2, §1

[6] = system: Clinical S. epidermidis (MSSA) 43/12; test: as above; type: cell-based, Staphylococcus epidermidis
Protocol: as §2, §1

[7] = system: Clinical S. epidermidis (MSSA) 37/12; test: as above; type: cell-based, Staphylococcus epidermidis
Protocol: as §2, §1

[8] = Determination of log Po/w by chromatographic (RP-HPLC) method, Soczewiński–Wachtmeister relationship; conditions: water/methanol, C18, 20 °C
Protocol: In this study, a chromatographic method and the Soczewiński–Wachtmeister relationship were used in order to determine the lipophilicity of the compounds [38, 39, 40, 41]
For the determination of log Po/w values, the newly synthesized compounds were analyzed by an Agilent 1200 system (Agilent Technologies, Santa Clara, CA, USA) equipped with a Zorbax Eclipse XDB column (C18, 250 × 4.6 mm, Agilent Technologies) and controlled by the software ChemStation Data Analysis. The separation was isocratic, and water/methanol (HPLC gradient grade, Sigma-Aldrich, St. Louis, MO, USA) mixtures containing 0.50, 0.55, 0.60, 0.65, 0.70, 0.75, 0.80, 0.85, 0.90 and 0.95 volume fractions of organic modifier were used as the mobile phase. The flow rate was 1.0 mL/min for the 7 and 2 and 0.8 mL/min for other compounds. The chromatographic peaks of test compounds were detected by UV absorbance at 230 nm. The column temperature was kept at 20 °C. The dead-time values were measured from the effluent peaks. All of the runs were performed in triplicate, and the resulting average values were used for the calculation of the retention factors.

[9] = system: bloodstream forms of T. brucei clone 427-221a; conditions: cited from earlier work

Structure (SMILES) | antibacterial activity in words [1] | antibacterial activity (range over strains) [1] [µg/mL] | generated intracellular ROS (SKOV-3 cells) | MIC, Clinical S. aureus (MSSA) 30/11 [2] [µg/mL] | MIC, Clinical S. aureus (MRSA) 31/12 [3] [µg/mL] | MIC, Clinical S. aureus (MRSA) 44/12 [4] [µg/mL] | MIC, Clinical S. aureus (MSSA) 26/11 [5] [µg/mL] | MIC, Clinical S. epidermidis (MSSA) 43/12 [6] [µg/mL] | MIC, Clinical S. epidermidis (MSSA) 37/12 [7] [µg/mL] | Log Po/w [8] | further results
O=C(CCn1cc(F)c(=O)[nH]c1=O)[C]12[CH]3[CH]4[CH]5[CH]1[Mn]4532.[C-]#[O+].[C-]#[O+].[C-]#[O+] (stereo not drawn) [Compound 1] | remarkable potency against all of the Gram-positive bacterial strains | 8 to 64 | generated the largest amounts of ROS | 64 | 64 | 32 | 32 | 8 | 4 |  | 
O=[C]=[Mn](=[C]=O)(=[C]=O)[CH]1C=CC=C1 [CymH, tricarbonyl(η^5-cyclopentadienyl)manganese, reference compound] | not active |  |  |  |  |  |  |  |  | 3.5 | 
Nc1ncnc2c1ncn2CCC(O)[C]12[CH]3[CH]4[CH]5[CH]1[Mn]4532[P](c1ccccc1)(c1ccccc1)c1ccccc1.[C-]#[O+].[C-]#[O+] (racemic) [Compound 5] |  |  | generated the largest amounts of ROS |  |  |  |  |  |  | 4.8 | 
O=c1[nH]c(=O)n(CCC(O)[C]23[CH]4[CH]5[CH]6[CH]2[Mn]5643[P](c2ccccc2)(c2ccccc2)c2ccccc2)cc1F.[C-]#[O+].[C-]#[O+] (racemic) [Compound 3] |  |  | generated the largest amounts of ROS |  |  |  |  |  |  | 5.2 | 
CCC(=O)[C]12[CH]3[CH]4[CH]5[CH]1[Mn]4532.[C-]#[O+].[C-]#[O+].[C-]#[O+] (stereo not drawn) [Compound 7, propionylocymantrene] | not active |  |  |  |  |  |  |  |  |  | 
Nc1ncnc2c1ncn2CCC(O)[C]12[CH]3[CH]4[CH]5[CH]1[Mn]45321[P](c2ccccc2)(c2ccccc2)CC[P]1(c1ccccc1)c1ccccc1.[C-]#[O+] (racemic) [Compound C] | remarkable potency against all of the Gram-positive bacterial strains | 8 to 64 | generated the largest amounts of ROS | 32 | 32 | 32 | 32 | 16 | 16 |  | MIC and GI50 ratios of cytotoxic to trypanocidal activities ([9]; HL-60 / T. brucei): 7–13; Selectivity GI50 Ratio ([9]; HL-60 / T. brucei): 13.1; Selectivity MIC Ratio ([9]; HL-60 / T. brucei): 10; GI50 [9]: 1670 ± 370 nM; T. brucei MIC [9]: 10 µM

Source: paper PMC6149849, “Cymantrenyl-Nucleobases: Synthesis, Anticancer, Antitrypanosomal and Antimicrobial Activity Studies” (Molecules : A Journal of Synthetic Chemistry and Natural …, 2017)
